Results reported in patent US20230364130A1, “INHALED ARGON FOR TREATING A PATIENT SUFFERING FROM CARDIOVASCULAR DISEASE” (L'Air Liquide, Sociëtë Anonyme Pour l'Etude et …, priority 2020, published 2023).

How the values were obtained:
rabbits [1] = test: histology score of organs after supraceliac aortic clamping and reperfusion; format: in vivo, rabbit (male, New Zealand breed)
Procedure: (§1) More specifically, the model used is a lagomorphic model of multiple organ failure by clamping the supraceliac aorta.
(§2) After a period of hemodynamic stabilization, the supraceliac aorta is clamped with an atraumatic clamp for 30 minutes. In order to avoid any thrombus formation at the level of the clamping, a bolus of unfractionated heparin (250 IU/kg) is administered to the rabbit in question, 5 minutes before clamping.
(§3) The rabbits are separated into 2 groups: • a Control Group (CG) inhaling an N2/O2 binary gas mixture containing 30% of oxygen and the rest as nitrogen (vol %); • an Argon Group (AG) according to the invention inhaling an Ar/O2 binary gas mixture containing 30% of oxygen and the rest as argon (vol %), i.e. 70 vol % of argon.
FIG. 3 represents the histology score of several organs: heart, liver, lungs, kidneys and jejunum (i.e. intestines).

rabbits [2] = test: additional preliminary study: suprarenal then supraceliac aortic clamping, calculated pulmonary vascular resistance; format: in vivo, rabbit; conditions: argon 70 vol % / oxygen 30 vol %, during suprarenal then supraceliac aortic clamping
Procedure: A first clamping of the aorta of these rabbits was performed above the renal artery, followed by clamping at the supraceliac level. The objective is to see the effect of argon during a gradual modification of systemic resistance.

rabbits [3] = test: model of multiple organ failure by clamping the supraceliac aorta (30 min) then reperfusion; hemodynamics and acid-base parameters; format: in vivo, rabbit (male, New Zealand breed)
Procedure: as §1
The rabbits were sedated by intravenous injection (Zoletil® 15 mg/kg), then intubated to be ventilated. Anesthesia is completed by intravenous administration of thiopental (10 mg/kg) and methadone hydrochloride (Comfortan® 0.6 mg/kg); and maintained as needed with thiopental boluses.
as §2
The effectiveness of the clamping is verified by the absence of an aortic pulse downstream of the clamping. Similarly, the absence of thrombus is assessed by the presence of an aortic pulse after unclamping.
as §3
The cardiac output is measured by a cardiac output valve before, during and after ischemia (Isch.) of the aorta.

[4] = after 300 minutes of reperfusion

## [Ar] [argon]
Rabbits [1]; jejunum, histology
  jejunal lesions vs Control Group: no difference
Rabbits [1]; kidneys, histology
  tubular necrosis lesions vs Control Group: significantly greater in the Control Group than in the Argon Group
Rabbits [1]; liver
  histology score, centrilobular clarification vs Control Group: significantly lower
Rabbits [1]; lungs, histology
  congestive and edematous lesions of the lung parenchyma vs Control Group: the difference was not significant
Rabbits [1]; myocardium, histology
  subendocardial necrosis lesions vs Control Group: no significant difference
Rabbits [2]
  pulmonary vascular resistance vs animals exposed to oxygen-enriched air: immediately reduced
Rabbits [3]; acid-base biochemical parameters
  pH, HCO3- and lactate parameters vs Control Group: significantly preserved within normal values
Rabbits [3]; after 15 minutes of reperfusion
  norepinephrine dose required to maintain a stable arterial pressure: 1.4 ± 0.6 µg/kg/min
Rabbits [3]; after 30 minutes of gas inhalation, before clamping
  cardiac output: 99 ± 10 mL/min/kg
Rabbits [3]; [4]
  cardiac output: 60 ± 4 mL/min/kg
  pH: 7.16
Rabbits [3]; after unclamping, up to 240 minutes of reperfusion
  cardiac output vs Control Group: no significant difference between the groups
Rabbits [3]; at the end of the 300-minute monitoring
  norepinephrine dose required to maintain a stable arterial pressure: 3.3 ± 1.6 µg/kg/min
Rabbits [3]; at the start of the experiment, inhaled Ar/O2 70/30 vol %
  cardiac output: 108 ± 7 mL/min/kg
Rabbits [3]; during the ischemia phase following clamping
  mean arterial pressure: 130±7 mmHg
Rabbits [3]; during the reperfusion phase, after unclamping
  mean arterial pressure vs Control Group: no significant difference between the groups
Rabbits [3]; immediately after beginning of surgery, upon clamping
  attenuated decrease of cardiac output vs Control Group: approximately 20%
Rabbits [3]; throughout reperfusion
  norepinephrine doses to maintain mean arterial pressure vs Control Group: significantly lower
Rabbits [3]; throughout the protocol
  heart rate vs Control Group: no significant difference between the groups
